Tests used:
S. pneumoniae D39V [1] = experiment: fitness (endpoint OD595 vs no drug) (fraction); higher = more growth
In short: (§1)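 At 37 °C, bacteria in TSB, LB Lennox or CY were grown in 384-well plates from a starting OD595 of 0.01. OD595 was measured every 30 min for 14 h, with the first reading used as background. Fitness is the optical density at the switch to stationary phase as a fraction of the robust mean of no-drug control wells, capped at 1.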

B. subtilis 168 [2] = experiment: as above
In short: as §1

S. aureus DSM 20231 [3] = experiment: as above
In short: as §1

S. aureus Newman [4] = experiment: as above
In short: as §1

S. pneumoniae D39V [5] = experiment: Bliss interaction score (quartile over a dose matrix) (fitness difference); higher = more antagonism (negative = synergy)
In short: (§2)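 Fitness is OD595 at stationary-phase entry relative to the plate's robust no-drug mean, capped at 1. Single-drug fitness was inferred from combinations. The Bliss score is observed minus product-expected fitness, summarised by quartiles over technical, biological and donor/recipient replicates.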

B. subtilis 168 [6] = experiment: as above
In short: as §2

S. aureus DSM 20231 [7] = experiment: as above
In short: as §2

S. aureus Newman [8] = experiment: as above
In short: as §2
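Wherever Bliss interaction score (quartile over a dose matrix) is given: first quartile when negative (synergy) and third quartile when positive (antagonism).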

CCCCCCCCCC(=O)N[C@@H](Cc1c[nH]c2ccccc12)C(=O)N[C@H](CC(N)=O)C(=O)N[C@@H](CC(=O)O)C(=O)N[C@@H]1C(=O)NCC(=O)N[C@@H](CCCN)C(=O)N[C@@H](CC(=O)O)C(=O)N[C@H](C)C(=O)N[C@@H](CC(=O)O)C(=O)NCC(=O)N[C@H](CO)C(=O)N[C@@H]([C@H](C)CC(=O)O)C(=O)N[C@@H](CC(=O)c2ccccc2N)C(=O)O[C@@H]1C [Daptomycin] + COc1ccc(C[C@H](N)C(=O)N[C@H]2[C@@H](O)[C@H](n3cnc4c(N(C)C)ncnc43)O[C@@H]2CO)cc1 [Puromycin]
fitness
Conditions | first compound 0.125 µg/mL | first compound 0.25 µg/mL | first compound 0.5 µg/mL | first compound 1 µg/mL | first compound 2 µg/mL | first compound 4 µg/mL
B. subtilis 168 [2], partner 0.39 µg/mL | 0.937 | 0.932 | 0.894 | – | – | –
B. subtilis 168 [2], partner 0.78 µg/mL | 0.912 | 0.91 | 0.864 | – | – | –
B. subtilis 168 [2], partner 1.56 µg/mL | 0.906 | 0.916 | 0.841 | – | – | –
S. aureus DSM 20231 [3], partner 0.39 µg/mL | – | – | 0.993 | ≥ 1 | ≥ 1 | –
S. aureus DSM 20231 [3], partner 0.78 µg/mL | – | – | ≥ 1 | 0.977 | ≥ 1 | –
S. aureus DSM 20231 [3], partner 1.56 µg/mL | 0.953 | ≥ 1 | ≥ 1 | 0.989 | 0.957 | –
S. aureus Newman [4], partner 0.39 µg/mL | 0.998 | 1 | 0.997 | – | – | –
S. aureus Newman [4], partner 0.78 µg/mL | 0.992 | 0.989 | 0.995 | – | – | –
S. aureus Newman [4], partner 1.56 µg/mL | ≥ 1 | 0.983 | ≥ 1 | – | – | –
S. pneumoniae D39V [1], partner 1 µg/mL | – | – | – | 0.939 | 0.969 | 0.922
S. pneumoniae D39V [1], partner 2 µg/mL | – | – | – | 0.892 | 0.876 | 0.909
S. pneumoniae D39V [1], partner 4 µg/mL | – | – | – | 0.32 | – | –

fitness, one replicate
Conditions | partner 0.39 µg/mL | partner 0.78 µg/mL | partner 1.56 µg/mL | partner 3.12 µg/mL | partner 6.24 µg/mL
B. subtilis 168 [2], first compound 1 µg/mL | 0.719 | 0.737 | 0.749 | – | –
S. aureus DSM 20231 [3], first compound 0.125 µg/mL | 0.935 | ≥ 1 | – | 0.968 | 0.865
S. aureus DSM 20231 [3], first compound 0.25 µg/mL | ≥ 1 | ≥ 1 | – | 0.932 | 0.81
S. aureus DSM 20231 [3], first compound 0.5 µg/mL | – | – | – | 0.962 | 0.762

Conditions | Bliss interaction score
B. subtilis 168 [6] | 0.0496
S. aureus DSM 20231 [7] | 0.0803
S. aureus Newman [8] | 0.0477
S. pneumoniae D39V [5] | -0.0975

CCCCCCCCCC(=O)N[C@@H](Cc1c[nH]c2ccccc12)C(=O)N[C@H](CC(N)=O)C(=O)N[C@@H](CC(=O)O)C(=O)N[C@@H]1C(=O)NCC(=O)N[C@@H](CCCN)C(=O)N[C@@H](CC(=O)O)C(=O)N[C@H](C)C(=O)N[C@@H](CC(=O)O)C(=O)NCC(=O)N[C@H](CO)C(=O)N[C@@H]([C@H](C)CC(=O)O)C(=O)N[C@@H](CC(=O)c2ccccc2N)C(=O)O[C@@H]1C [Daptomycin] + COc1cccc2c1C(=O)c1c(O)c3c(c(O)c1C2=O)C[C@@](O)(C(=O)CO)C[C@@H]3O[C@H]1C[C@H](N)[C@H](O)[C@H](C)O1 [Doxorubicin]
Conditions | fitness
B. subtilis 168 [2], first compound 0.125 µg/mL, partner 0.625 µg/mL | 0.93
B. subtilis 168 [2], first compound 0.125 µg/mL, partner 1.25 µg/mL | 0.905
B. subtilis 168 [2], first compound 0.125 µg/mL, partner 2.5 µg/mL | 0.628
B. subtilis 168 [2], first compound 0.25 µg/mL, partner 0.625 µg/mL | 0.93
B. subtilis 168 [2], first compound 0.25 µg/mL, partner 1.25 µg/mL | 0.911
B. subtilis 168 [2], first compound 0.5 µg/mL, partner 0.625 µg/mL | 0.84
S. aureus DSM 20231 [3], first compound 0.5 µg/mL, partner 0.625 µg/mL | 0.91
S. aureus DSM 20231 [3], first compound 0.5 µg/mL, partner 1.25 µg/mL | 0.935
S. aureus DSM 20231 [3], first compound 0.5 µg/mL, partner 2.5 µg/mL | 0.829
S. aureus DSM 20231 [3], first compound 1 µg/mL, partner 0.625 µg/mL | 0.887
S. aureus DSM 20231 [3], first compound 1 µg/mL, partner 1.25 µg/mL | 0.961
S. aureus DSM 20231 [3], first compound 1 µg/mL, partner 2.5 µg/mL | 0.852
S. aureus DSM 20231 [3], first compound 2 µg/mL, partner 0.625 µg/mL | 0.926
S. aureus DSM 20231 [3], first compound 2 µg/mL, partner 1.25 µg/mL | 0.914
S. aureus DSM 20231 [3], first compound 2 µg/mL, partner 2.5 µg/mL | 0.841
S. aureus Newman [4], first compound 0.125 µg/mL, partner 0.625 µg/mL | 0.867
S. aureus Newman [4], first compound 0.125 µg/mL, partner 1.25 µg/mL | 0.865
S. aureus Newman [4], first compound 0.125 µg/mL, partner 2.5 µg/mL | 0.739
S. aureus Newman [4], first compound 0.25 µg/mL, partner 0.625 µg/mL | 0.869
S. aureus Newman [4], first compound 0.25 µg/mL, partner 1.25 µg/mL | 0.851
S. aureus Newman [4], first compound 0.25 µg/mL, partner 2.5 µg/mL | 0.748
S. aureus Newman [4], first compound 0.5 µg/mL, partner 0.625 µg/mL | 0.829
S. aureus Newman [4], first compound 0.5 µg/mL, partner 1.25 µg/mL | 0.834
S. aureus Newman [4], first compound 0.5 µg/mL, partner 2.5 µg/mL | 0.755
S. pneumoniae D39V [1], first compound 1 µg/mL, partner 0.25 µg/mL | 0.86
S. pneumoniae D39V [1], first compound 1 µg/mL, partner 0.5 µg/mL | 0.876
S. pneumoniae D39V [1], first compound 1 µg/mL, partner 1 µg/mL | 0.669
S. pneumoniae D39V [1], first compound 2 µg/mL, partner 0.25 µg/mL | 0.936
S. pneumoniae D39V [1], first compound 2 µg/mL, partner 0.5 µg/mL | 0.875
S. pneumoniae D39V [1], first compound 2 µg/mL, partner 1 µg/mL | 0.721
S. pneumoniae D39V [1], first compound 4 µg/mL, partner 1 µg/mL | 0.686

B. subtilis 168 [2], first compound 1 µg/mL, one replicate
Conditions | fitness
partner 0.625 µg/mL | 0.783
partner 1.25 µg/mL | 0.645
partner 2.5 µg/mL | 0.197

Conditions | Bliss interaction score
B. subtilis 168 [6] | 0.0744
S. aureus DSM 20231 [7] | 0.0493
S. aureus Newman [8] | -0.0594
S. pneumoniae D39V [5] | 0.0772
